ChEMBL document CHEMBL1151502, “New base-altered adenosine analogues: Synthesis and affinity at adenosine A1 and A2A receptors” (Bioorg Med Chem Lett, 1997)

Key:
[1] = biological target: Adenosine receptor A2a (Rattus norvegicus, UniProt P30543); test: Displacement of [3H]-CGS- 21680 from Adenosine A2 receptor of rat striatal membranes; type: cell membranes, Membrane
[2] = biological target: T1, Adenosine receptor A1 (Rattus norvegicus, UniProt P25099); test: Binding affinity at Adenosine A1 receptor in rat brain membranes by [3H](R)-PIA displacement.; type: cell membranes
T1 sequence (P25099 whole entry): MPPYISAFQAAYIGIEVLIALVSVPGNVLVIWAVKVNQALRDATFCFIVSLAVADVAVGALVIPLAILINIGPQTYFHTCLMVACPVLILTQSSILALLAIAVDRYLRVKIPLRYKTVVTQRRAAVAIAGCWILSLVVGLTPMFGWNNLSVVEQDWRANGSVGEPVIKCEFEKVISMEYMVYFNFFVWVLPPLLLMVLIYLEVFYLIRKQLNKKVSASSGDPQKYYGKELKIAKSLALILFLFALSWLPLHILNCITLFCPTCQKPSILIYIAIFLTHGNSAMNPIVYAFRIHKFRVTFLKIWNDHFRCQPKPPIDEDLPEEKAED

[3] = biological target: Adenosine receptor A2a (Rattus norvegicus) (UniProt P30543); test: Displacement of [3H]-CGS- 21680 from Adenosine A2 receptor in rat striatal membranes at 10e-4 M; type: cell membranes; settings: Membrane
[4] = biological target: Adenosine receptors; A1 & A2a (Rattus norvegicus) (UniProt P25099+P30543); test: Selective ratio of A1 receptor to A2A receptor; type: protein assay
[5] = biological target: Adenosine receptor A1 (Rattus norvegicus) (UniProt P25099); test: Binding affinity for Adenosine A1 receptor
[6] = biological target: Adenosine receptor A2a (Rattus norvegicus) (UniProt P30543); test: Displacement of [3H]-CGS- 21680 from Adenosine A2 receptor in rat striatal membranes at 10e-5 M; type: cell membranes; settings: Membrane

Chain of Adenosine receptor A2a (Rattus norvegicus) (P30543 whole entry): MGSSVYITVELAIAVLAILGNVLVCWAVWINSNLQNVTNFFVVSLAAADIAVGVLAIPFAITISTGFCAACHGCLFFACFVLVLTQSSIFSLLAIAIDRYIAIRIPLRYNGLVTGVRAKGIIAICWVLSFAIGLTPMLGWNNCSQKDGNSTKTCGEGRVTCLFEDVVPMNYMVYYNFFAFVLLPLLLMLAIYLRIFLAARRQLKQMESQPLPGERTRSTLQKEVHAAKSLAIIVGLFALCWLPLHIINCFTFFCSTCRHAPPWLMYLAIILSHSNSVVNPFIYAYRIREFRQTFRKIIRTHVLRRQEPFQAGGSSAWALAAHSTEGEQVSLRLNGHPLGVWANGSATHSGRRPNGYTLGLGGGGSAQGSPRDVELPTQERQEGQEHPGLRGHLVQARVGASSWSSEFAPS
Chain of Adenosine receptor A2a (P30543 whole entry): as above
Chain of Adenosine receptors; A1 & A2a (Rattus norvegicus) (P30543 whole entry, looked up, one chain of several): as the sequence (P30543 whole entry) above

Row | Structure (SMILES) | Ki [1] [nM] | Ki [2] [nM] | further results
1 | OC[C@H](Cc1ccccc1)Nc1nc(I)nc2c1ncn2C1O[C@H](CO)[C@@H](O)[C@H]1O (stereo not given in full) | 1360 | 23 | 
2 | OC[C@@H](Cc1ccccc1)Nc1nc(I)nc2c1ncn2C1O[C@H](CO)[C@@H](O)[C@H]1O (stereo not given in full) |  | 989 | Displacement [3]: 49%
3 | OC[C@H]1OC(n2cnc3c(NN4CCOCC4)ncnc32)[C@H](O)[C@@H]1O (stereo not given in full) |  | 15500 | Displacement [3]: 36%
4 | OC[C@H]1O[C@@H](n2cnc3c(NN4CCCC4)ncnc32)[C@H](O)[C@@H]1O (stereo in doubt) [listing 1 of 2 here] |  |  | Ratio [4]: 350
5 | OC[C@H](Cc1ccccc1)Nc1nc(Cl)nc2c1ncn2C1O[C@H](CO)[C@@H](O)[C@H]1O (stereo not given in full) | 492 | 2.41 | 
6 | OC[C@H]1O[C@@H](n2cnc3c(NN4CCC(Sc5ccccc5)CC4)nc(Cl)nc32)[C@H](O)[C@@H]1O | 470 |  | Ratio [4]: 522
7 | OC[C@H]1O[C@@H](n2cnc3c(NN4CCCC4)ncnc32)[C@H](O)[C@@H]1O (stereo in doubt; 3) | 2800 | 8 | 
8 | OC[C@H]1O[C@@H](n2cnc3c(NN4CCOCC4)nc(Cl)nc32)[C@H](O)[C@@H]1O | 1900 | 4.89 | Ki [5]: 8 nM
9 | OC[C@@H](Cc1ccccc1)Nc1nc(Cl)nc2c1ncn2C1O[C@H](CO)[C@@H](O)[C@H]1O (stereo not given in full) | 10400 | 452 | 
10 | CC(C)C[C@@H](CO)Nc1ncnc2c1ncn2C1O[C@H](CO)[C@@H](O)[C@H]1O (stereo not given in full) |  | 139 | Displacement [6]: < 10%
11 | CC(C)C[C@H](CO)Nc1ncnc2c1ncn2C1O[C@H](CO)[C@@H](O)[C@H]1O (stereo not given in full) | 30300 | 224 | 
12 | CC(Nc1ncnc2c1ncn2[C@@H]1O[C@H](CO)[C@@H](O)[C@H]1O)[C@@H](O)c1ccccc1 (stereo not given in full) | 390 | 2.7 | Ratio [4]: 144

Second part, led by results:

Row | Ki [1] [nM] | Ki [2] [nM] | Structure (SMILES) | further results
13 | 8630 | 71 | OC[C@H]1OC(n2cnc3c(NN4CCCCC4)nc(I)nc32)[C@H](O)[C@@H]1O (stereo not given in full) | 
14 |  | 7.3 | OC[C@H]1O[C@@H](n2cnc3c(NN4CCCCC4)ncnc32)[C@H](O)[C@@H]1O | Displacement [3]: 29%
15 | 2800 | 8 | OC[C@H]1O[C@@H](n2cnc3c(NN4CCCC4)ncnc32)[C@H](O)[C@@H]1O (stereo in doubt) [listing 2 of 2 here] | 
16 | 19400 | 113 | OC[C@H]1OC(n2cnc3c(NN4CCOCC4)nc(I)nc32)[C@H](O)[C@@H]1O (stereo not given in full) | 
17 | 936 | 3.55 | OC[C@H]1O[C@@H](n2cnc3c(NN4CCCCC4)nc(Cl)nc32)[C@H](O)[C@@H]1O | 
